Data on one substance can be found in paper PMC10652874, “Investigation into the mechanism of action of the antimicrobial peptide epilancin 15X” (Frontiers in Microbiology, 2023).

For assay [1], the system named is fatty acid biosynthesis in S. carnosus TM300. The format is cell-based, Staphylococcus carnosus. Particulars: S. carnosus TM300, 2× MIC, normalized to OD600, three independent experiments.
Procedure: Thre e in de pen den t ex perime nts of incorporation of (A) 14C- acetic acid into fatty acids, (B) 14C- thymi din e into D NA, (C) 3H-uridi ne into RNA, (D) 14C- lab el ed ami no acids into protei n, and (E) 14C- label ed GlcNAc into cell w all in S. carnosus TM300 cells treated with vario u s antimicro bia l agents. T he p ercent i nco rpo ratio n at 0 min was measured after incubati ng the cel l cultur e with 0.8 μCi/mL radioactive precursors for 15 min. […] Positive controls a re gr een and negative controls are black (cells o nly) an d blu e (co mpo und w ith mo d e o f actio n unr elate d to th e a ssay i n que stio n). T he ra dio activity o f each a nti bio tic - treated cultur e was normalized based on it s OD600 at each time point compared to th e unt reate d ce ll cultur e.
In assay [2] the test system is LiaRS response in B. subtilis BSF2470. Put plainly: LiaRS disk diffusion reporter assay (β-galactosidase, X-Gal). It is filed as cell-based, Bacillus subtilis. Particulars: 37°C overnight. The protocol:
The LiaRS response was determined via disk diffusion as described previously ([Mascher et al., 2004]). Briefly, B. subtilis strain BSF2470 was grown in LB supplemented with erythromycin (1 μg/mL) overnight at 37°C with shaking. A total of 20 μL of overnight culture was mixed with 100 μL of 20 mg/mL X-Gal (dissolved in DMF) and 5 mL of 0.7% soft LB agar then poured onto a 1.5% LB agar base. The plates were allowed to cool and dry at room temperature for 20 min. The desired molecule was either spotted on a filter paper disk and placed on top of the agar or directly spotted on the agar. The following molecules were tested: ampicillin, 0.5 μL on filter disk, 1 μL directly spotted, 100 mg/mL; compound 1771/LtaS-IN-1, 4 μL, 20 mM (dissolved in DMSO); epilancin 15X, 4 μL, 5 mM; vancomycin, 1 μL, 100 mg/mL; nisin, 4 μL, 2 mM; bacitracin, 4 μL on filter disk, 5 μL directly spotted, 100 mg/mL; water, 5 μL; magainin 2, 10 μL, 1 mM; melittin, 10 μL, 1 mM. The plate was incubated at 37°C overnight. After overnight incubation, the plate was imaged. Compound 1771 (CS-0114233) was purchased from ChemScene LLC.
To investigate the effect of epilancin 15X on the cell envelope, we employed the two-component LiaRS reporter system in B. subtilis (lipid II cycle interfering antibiotic response regulator and sensor; [Mascher et al., 2004]). Briefly, the LiaRS assay is a disk diffusion assay used to screen for the ability of compounds to induce β-galactosidase expression in engineered B. subtilis BSF2470 ([Mascher et al., 2004]). Molecules that produce a blue ring around the edge of the zone of growth inhibition are believed to interfere with the lipid II cycle ([Hachmann et al., 2009]). […] The compound 1771, also called LtaS-IN-1, inhibits lipoteichoic acid (LTA) synthesis ([Richter et al., 2013]) and to the best of our knowledge has not been tested in the LiaRS assay.

Assay [3] deals with B. subtilis BSF2470 (1A980). The experiment in a line: MIC determination in 96-well microtiter plate. It is filed as cell-based, Bacillus subtilis. The conditions noted are these: LB, 37°C, 10^5 CFU/mL, OD600 after 18 h. As to the method: (§1) MIC determination was performed in a 96-well microtiter plate as described previously ([Wu et al., 2019]). Sensitive bacterial culture was grown in the appropriate medium (BHI for S. carnosus; LB for B. subtilis) at 37°C overnight. The culture was diluted to 10^5 CFU/mL in medium in each well. Epilancin 15X or its analog was dissolved in water and serially diluted to obtain final concentrations of 20, 10, 5, 2.5, 1.25, 0.625, 0.3125, 0.156, 0.078, 0.039, 0.019, and 0.009 μM. OD600 readings were obtained after 18 h using a Synergy H4 Hybrid Multi-Mode Microplate Reader (BioTeK). Cell-free untreated medium, and untreated cell culture were used as negative controls. The MIC of nisin against B. subtilis BSF2470 was determined following the same methods.

Assay [4] deals with B. subtilis 168. The experiment in a line: MIC determination in 96-well microtiter plate. It is filed as cell-based, Bacillus subtilis. Particulars: LB, 37°C, 10^5 CFU/mL, OD600 after 18 h. As to the method: as §1
Assay [5] has as its system B. subtilis ATCC 6633. Put plainly: MIC determination in 96-well microtiter plate. It is filed as cell-based, Bacillus subtilis. Particulars: LB, 37°C, 10^5 CFU/mL, OD600 after 18 h. The protocol:
as §1

Assay [6] deals with S. epidermidis ATCC 12228. The experiment in a line: MIC determination in 96-well microtiter plate. The conditions noted are these: 37°C, 10^5 CFU/mL, OD600 after 18 h. It is filed as cell-based, Staphylococcus epidermidis.
Assay [7] has as its system DNA biosynthesis in S. carnosus TM300. The experiment in a line: Macromolecular synthesis assay: 14C-thymidine incorporation into DNA. The format is cell-based, Staphylococcus carnosus. Particulars: S. carnosus TM300, 2× MIC, three independent experiments. As to the method:
Radiolabel incorporation experiments were carried out similarly as previously described but using S. carnosus ([Wu et al., 2019]). The OD600 of parallel nonradioactive cultures was measured at each time point to normalize the measured radioactivity and minimize effects due to cell death and growth inhibition. The radiolabeled reagents and their corresponding positive and negative antibiotic controls were as follows. […] All experiments were conducted independently three times.
Figure S3. Thre e in de pen den t ex perime nts of incorporation of (A) 14C- acetic acid into fatty acids, (B) 14C- thymi din e into D NA, (C) 3H-uridi ne into RNA, (D) 14C- lab el ed ami no acids into protei n, and (E) 14C- label ed GlcNAc into cell w all in S. carnosus TM300 cells treated with vario u s antimicro bia l agents. T he p ercent i nco rpo ratio n at 0 min was measured after incubati ng the cel l cultur e with 0.8 μCi/mL radioactive precursors for 15 min. Then 0.5x, 1x, 2x, or 4x MIC epilanci n 15X and 2x MIC controls were added to the cell cultur e (t=0), and t he percent incorporation was measur ed ov er time. Positive controls a re gr een and negative controls are black (cells o nly) an d blu e (co mpo und w ith mo d e o f actio n unr elate d to th e a ssay i n que stio n). […]

For assay [8], the system named is S. carnosus TM300. The experiment in a line: Lipid protection assay (MIC with lipid-supplemented growth medium). It is filed as cell-based, Staphylococcus carnosus. Particulars: for Epilancin MIC: S. carnosus TM300. As to the method: as §1
The possibility of direct interaction between epilancin 15X and specific lipids was examined through lipid protection assays. […] In an agar diffusion assay, purified S. aureus LTA antagonized the bioactivity of epilancin 15X but not nisin A (Supplementary Figure S5A).

Setting [9] is: B. subtilis LTA (-) added, ~100 µM.
Where [10] appears, read: S. aureus LTA (-) added, ~100 µM.

Turning to Epilancin 15X, in assay [1], the “fatty acid biosynthesis (14C-acetic acid incorporation)” value is on record as “decrease”. For the same substance, the “LiaRS response (blue ring at the edge of the zone of inhibition)” value in assay [2] is on record as “did not induce a LiaRS response”. The MIC worked out at 2.5 µM in assay [3], 4.00 µM in assay [4], 1.25 µM in assay [5] and 0.62 µM in assay [6]. Also, the “DNA biosynthesis (14C-thymidine incorporation)” value in assay [7] is on record as “considerably stronger effect than that observed with the respective negative controls”. The “Increase in MIC compared to WT” value is 8 X in assay [8] (setting [9]); 8 X in assay [8] (Cardiolipin (-) added, 130 µM); “did not display any protection affect” in assay [8] (DGDG added, 100 µM); “did not display any protection affect” in assay [8] (POPC added, 130 µM); “did not display any protection affect” in assay [8] (POPE added, 500 µM); 4 X in assay [8] (POPG (-) added, 100 µM). Besides, the “Increase in MIC compared to WT” value in assay [8] (setting [10]) is listed as over 16 X. The “Epilancin MIC” value in assay [8] (setting [9]) was 2.5 µM; in assay [8] (Cardiolipin (-) added, 130 µM), 2.5 µM; in assay [8] (DGDG added, 100 µM), 0.31 µM; in assay [8] (POPC added, 130 µM) it was 0.31 µM; in assay [8] (POPE added, 500 µM), 0.31 µM; in assay [8] (POPG (-) added, final concentration 100 µM), 1.25 µM. In assay [8] (setting [10]), the “Epilancin MIC” value is over 5 µM. The “increase of epilancin 15X MIC” value in assay [8] (growth medium supplemented with 2.5 μM LTA isolated from S. aureus) is given as “at least 8 fold”; in assay [8] (growth medium supplemented with POPG) it was “at least 4 fold”; in assay [8] (growth medium supplemented with cardiolipin), “at least 4 fold”.
